Test results as given in US20250389725A1, “METHOD FOR DETECTION OF SULFUR-CONTAINING AMINO ACID AS BIOMARKER FOR GLIOBLASTOMA USING NOVEL FLUORESCENT PROBE AND FLUORESCENCE-GUIDED SURGERY IMAGING APPLICATION THEREOF” (UNIVERSITY-INDUSTRY COOPERATION GROUP OF KYUNG HEE …, priority 2023, published 2025).

Key:
Format in all cases: cell-based
[1] = tested on: glioblastoma cells (U87MG); experiment: CCK-8 cell viability (toxicity), U87MG; conditions: CCK-8, compared to leaving groups with similar structures
Protocol: (§1) Specifically, for cell preparation, approximately 5×10^3 cells each of glioblastoma cells (U87MG), hepatoma cells (Huh7), cervical cancer cells (HeLa), and skin cancer cells (B16F10) were treated in a 96-well clear plate (SPL Life Science, Ref. of Korea), cultured at 37° C. for 24 hours, and then treated with Compound 1 (NPO-o-Pyr, 10 μM) and analyzed using a CCK-8 assay kit (Dofindo, Japan) according to the manufacturer's instructions. Absorbance levels were analyzed at a wavelength of 490 nm by a microplate reader (SpctraMax Gemini EM, Molecular Devices, US). 2-Hydroxypyridine and various leaving groups with similar structures thereto were treated in U87MG, Huh7, HeLa, and B16F10 cells, and the cell viability was measured, which was shown in FIG. 12.

[2] = tested on: hepatoma cells (Huh7); experiment: CCK-8 cell viability (toxicity), Huh7; conditions: Huh7, CCK-8, compared to leaving groups with similar structures
Protocol: as §1

[3] = tested on: cervical cancer cells (HeLa); experiment: CCK-8 cell viability (toxicity), HeLa; conditions: CCK-8, compared to leaving groups with similar structures
Protocol: as §1

[4] = tested on: skin cancer cells (B16F10); experiment: CCK-8 cell viability (toxicity), B16F10; conditions: B16F10, CCK-8, compared to leaving groups with similar structures
Protocol: as §1

Measured: toxicity (cell viability)

Oc1ccccn1 [2-hydroxypyridine]
very low: all assays above
